Patent publication US11643421B2, “Process for the preparation of tricyclic PI3K inhibitor compounds and methods for using the same for the treatment of cancer” (priority 2015, dated 2023)
Read-outs that look alike come from different tables or passages of the source.

Columns and labels:
[1] = Hepatocyte stability, predicted hepatic clearance; assay type: in vitro ADME; conditions: in vitro t1/2 method
Procedure: The hepatocyte stability of compound IIIat was evaluated across preclinical species. Certain in vivo pharmacokinetic parameters were also evaluated. […] Male Sprague-Dawley rats, female CD-1 mice, male cynomolgus monkeys and beagle dogs were dosed intravenously with 1 mg/kg of compound IIIat prepared in 60% PEG400/10% Ethanol. Compound IIIat was administered orally (PO) at the indicated dose in 0.5% methylcellulose with 0.2% Tween 80 (MCT).

[2] = Phase I dose-escalation study, plasma pharmacokinetics; assay type: in vivo, human; conditions: for concentration at 15 day: read-out: Cmin (μM), Mean; for AUC(0-t): read-out: AUC0-24 (μM*hr), Mean; for AUC(0-inf): read-out: AUCinf (μM*hr), Mean
Procedure: Plasma samples for pharmacokinetic (“PK”) analysis were collected on day 1 and day 8 or day 15 of cycle 1. Fluorodeoxyglucose positron emission tomography (“FDG-PET”) was performed at baseline and on-treatment.
Dosing times may have been adjusted to accommodate for time shifts from the home administration schedule (e.g., for clinic visits with PK sampling or traveling), but times were to be adjusted by no more than 4 hours at a time.
For administration under fasted conditions, patients fasted overnight for at least 8 hours before dosing and 2 hours after dosing.
For Cohorts 1-6 (2-30 mg), the single dose on Cycle 1, Day 1 was followed by a 7 day washout-period, after which continuous once daily dosing, for 28 consecutive days, was started on Day 8. Blood samples for Cohorts 1-6 were collected on Day 15 for PK analysis.
All plasma concentration-time data collected in Cycle 1 were analyzed using WinNonlin® (Version 6.4, Pharsight Corp, Mountain View, Calif.) to estimate PK parameters, which included but were not limited to AUC0-last (where AUC refers to the area under the concentration-time curve) and/or AUCinf, Cmax, Cmin, tmax, half-life, CL/F, and accumulation ratio. Estimates for each PK parameter and summary statistics (mean, standard deviation, coefficient of variation, median, minimum, and maximum) were tabulated by dose level and schedule. Nominal time data were used in the analysis, and the linear up/log down trapezoidal method was used for calculating AUC.

[3] = Phase I study, brain tumor and brain tissue concentration; assay type: in vivo, human; conditions: concentration from brain tumor tissue, patients
human BCRP = molecular target: T1, human BCRP (Homo sapiens, UniProt Q9UNQ0); assay: Transport assay in BCRP-MDCKII cell monolayers; assay type: in vitro ADME; conditions: 2-hour incubation
T1 construct: host or cells: BCRP-MDCKII (canine kidney)
T1 sequence (Q9UNQ0 whole entry): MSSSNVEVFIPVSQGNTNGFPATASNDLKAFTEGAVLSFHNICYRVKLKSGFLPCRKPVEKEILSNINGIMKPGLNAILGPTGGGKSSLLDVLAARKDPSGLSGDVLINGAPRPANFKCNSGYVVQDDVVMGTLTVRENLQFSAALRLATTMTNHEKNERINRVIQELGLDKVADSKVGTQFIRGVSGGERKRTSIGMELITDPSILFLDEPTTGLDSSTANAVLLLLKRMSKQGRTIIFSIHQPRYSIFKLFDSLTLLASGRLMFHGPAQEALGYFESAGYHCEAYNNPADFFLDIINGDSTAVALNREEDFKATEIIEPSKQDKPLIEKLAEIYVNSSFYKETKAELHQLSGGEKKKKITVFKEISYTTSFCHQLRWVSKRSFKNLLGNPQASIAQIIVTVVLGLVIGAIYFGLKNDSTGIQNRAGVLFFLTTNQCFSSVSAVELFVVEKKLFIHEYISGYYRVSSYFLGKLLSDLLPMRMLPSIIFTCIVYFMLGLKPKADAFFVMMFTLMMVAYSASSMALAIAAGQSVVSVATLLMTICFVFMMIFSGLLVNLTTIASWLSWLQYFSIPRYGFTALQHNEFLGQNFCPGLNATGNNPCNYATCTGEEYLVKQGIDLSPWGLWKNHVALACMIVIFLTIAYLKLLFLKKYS
Procedure: MDR1-MDCKI cells were licensed from the NCI (National Cancer Institute, Bethesda, Md.) and Bcrp1-MDCKII, BCRP-MDCKII and Mdr1a-LLC-PK1 cells were obtained from the Netherlands Cancer Institute (Amsterdam. The Netherlands). […] The compound was dissolved in transport buffer consisting of Hank's balanced salt solution (HBSS) with 10 mM HEPES (Invitrogen Corporation, Grand Island, N.Y.). Lucifer Yellow (Sigma-Aldrich, St. Louis, Mo.) was used as the paracellular and monolayer integrity marker. […] The efflux ratio (ER) was calculated (Papp, B-A/Papp, A-B).

[4] = Plasma protein binding by equilibrium dialysis; assay type: in vitro ADME; conditions: mouse, plasma (pooled), pH 7.4, n=3, mean±standard deviation, read-out: free fraction (%) in mouse plasma
Procedure: Plasma samples were equilibrated with phosphate-buffered saline (pH 7.4) at 37° C. in 90% humidity and 5% CO2 for 4 hours. […] Incubations were performed in triplicate. Parameters are presented as mean±standard deviation.

CDK9/cyclinT1 = CDK9/cyclinT1 (Homo sapiens, UniProt P50750); assay: biochemical; conditions: read-out: % inhib
CDK9/cyclinT1, sequence (P50750 whole entry, species assumed): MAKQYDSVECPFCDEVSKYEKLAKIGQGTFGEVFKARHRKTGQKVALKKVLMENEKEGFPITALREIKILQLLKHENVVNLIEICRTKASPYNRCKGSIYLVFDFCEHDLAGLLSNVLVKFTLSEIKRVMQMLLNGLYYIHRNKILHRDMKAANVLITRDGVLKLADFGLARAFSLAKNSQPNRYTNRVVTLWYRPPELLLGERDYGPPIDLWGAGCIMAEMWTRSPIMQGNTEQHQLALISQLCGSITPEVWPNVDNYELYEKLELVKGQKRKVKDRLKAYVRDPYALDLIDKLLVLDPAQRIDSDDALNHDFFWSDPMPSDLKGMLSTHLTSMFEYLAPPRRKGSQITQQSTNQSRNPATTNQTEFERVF
CDK9/cyclinT1, sequence (O60563 whole entry partner, species assumed): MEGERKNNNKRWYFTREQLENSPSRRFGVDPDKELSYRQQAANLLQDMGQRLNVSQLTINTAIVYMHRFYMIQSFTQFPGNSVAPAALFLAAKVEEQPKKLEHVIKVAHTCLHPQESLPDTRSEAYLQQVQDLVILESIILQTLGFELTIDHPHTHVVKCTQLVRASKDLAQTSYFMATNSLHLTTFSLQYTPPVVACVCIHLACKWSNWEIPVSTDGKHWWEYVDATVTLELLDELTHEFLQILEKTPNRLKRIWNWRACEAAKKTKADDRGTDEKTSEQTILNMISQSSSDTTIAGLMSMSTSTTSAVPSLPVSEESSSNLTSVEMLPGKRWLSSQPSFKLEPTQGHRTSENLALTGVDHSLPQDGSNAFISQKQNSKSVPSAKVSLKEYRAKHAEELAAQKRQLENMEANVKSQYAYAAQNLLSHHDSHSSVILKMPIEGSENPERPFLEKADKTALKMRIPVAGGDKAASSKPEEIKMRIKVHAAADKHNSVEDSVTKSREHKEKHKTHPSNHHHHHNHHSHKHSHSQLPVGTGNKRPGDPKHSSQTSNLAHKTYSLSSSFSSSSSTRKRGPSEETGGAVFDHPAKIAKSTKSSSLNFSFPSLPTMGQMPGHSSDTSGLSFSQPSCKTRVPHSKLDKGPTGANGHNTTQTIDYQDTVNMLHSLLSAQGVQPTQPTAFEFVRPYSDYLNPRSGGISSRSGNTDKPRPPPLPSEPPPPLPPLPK

Frk = Frk (Homo sapiens, UniProt P42685); assay: biochemical; conditions: read-out: % inhib
Frk, sequence (P42685 whole entry): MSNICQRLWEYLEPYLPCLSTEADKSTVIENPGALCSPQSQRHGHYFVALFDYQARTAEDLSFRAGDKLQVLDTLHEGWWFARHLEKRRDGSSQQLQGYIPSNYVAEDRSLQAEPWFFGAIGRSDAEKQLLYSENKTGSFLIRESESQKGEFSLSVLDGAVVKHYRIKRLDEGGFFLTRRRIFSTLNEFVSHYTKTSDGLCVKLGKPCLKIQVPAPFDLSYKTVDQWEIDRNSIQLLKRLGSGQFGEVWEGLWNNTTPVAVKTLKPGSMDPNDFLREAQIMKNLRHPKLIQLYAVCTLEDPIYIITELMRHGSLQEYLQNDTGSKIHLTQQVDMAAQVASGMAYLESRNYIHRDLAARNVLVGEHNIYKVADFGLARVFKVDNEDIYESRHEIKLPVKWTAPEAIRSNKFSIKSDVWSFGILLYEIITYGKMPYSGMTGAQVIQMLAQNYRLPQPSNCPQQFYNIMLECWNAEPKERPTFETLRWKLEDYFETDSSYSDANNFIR

PI4Ka = PI4Ka (Homo sapiens, UniProt P42356); assay: biochemical; conditions: read-out: % inhib
PhK_gamma2 = PhK_gamma2 (Homo sapiens, UniProt P15735); assay: biochemical; conditions: read-out: % inhib
PhK_gamma2, sequence (P15735 whole entry): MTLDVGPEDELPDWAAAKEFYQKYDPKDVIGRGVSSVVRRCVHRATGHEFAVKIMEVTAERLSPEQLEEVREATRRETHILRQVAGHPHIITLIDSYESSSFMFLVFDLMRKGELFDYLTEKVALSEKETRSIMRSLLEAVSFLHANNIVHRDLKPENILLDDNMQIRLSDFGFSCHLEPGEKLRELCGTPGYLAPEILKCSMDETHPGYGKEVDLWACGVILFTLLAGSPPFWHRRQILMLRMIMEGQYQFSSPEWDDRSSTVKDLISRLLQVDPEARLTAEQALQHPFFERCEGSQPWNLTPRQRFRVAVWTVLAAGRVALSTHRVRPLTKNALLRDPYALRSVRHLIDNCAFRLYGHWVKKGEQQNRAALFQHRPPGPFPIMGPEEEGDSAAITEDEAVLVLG

TBK1 = TBK1 (Homo sapiens, UniProt Q9UHD2); assay: biochemical; conditions: read-out: % inhib
TBK1, sequence (Q9UHD2 whole entry, species assumed): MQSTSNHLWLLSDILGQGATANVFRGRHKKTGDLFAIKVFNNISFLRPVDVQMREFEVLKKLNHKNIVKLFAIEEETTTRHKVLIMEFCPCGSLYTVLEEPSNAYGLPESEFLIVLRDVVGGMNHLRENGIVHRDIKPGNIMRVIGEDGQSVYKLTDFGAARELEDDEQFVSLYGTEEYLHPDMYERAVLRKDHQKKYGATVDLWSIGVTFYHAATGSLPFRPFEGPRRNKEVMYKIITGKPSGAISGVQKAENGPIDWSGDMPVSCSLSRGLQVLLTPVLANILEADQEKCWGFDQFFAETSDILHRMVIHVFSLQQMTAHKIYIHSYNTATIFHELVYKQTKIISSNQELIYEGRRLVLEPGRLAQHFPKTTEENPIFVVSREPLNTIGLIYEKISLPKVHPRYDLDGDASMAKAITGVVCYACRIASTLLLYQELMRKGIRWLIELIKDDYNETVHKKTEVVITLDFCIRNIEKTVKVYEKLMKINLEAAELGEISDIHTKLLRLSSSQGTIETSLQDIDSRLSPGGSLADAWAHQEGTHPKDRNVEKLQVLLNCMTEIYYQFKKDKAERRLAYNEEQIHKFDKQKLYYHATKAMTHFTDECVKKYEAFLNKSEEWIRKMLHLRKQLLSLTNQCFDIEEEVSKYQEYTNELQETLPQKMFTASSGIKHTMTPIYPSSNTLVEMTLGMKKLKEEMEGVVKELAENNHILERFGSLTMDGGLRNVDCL

[5] = human, plasma, oral, 2 mg once daily, multiple doses, Cycle 1 Day 15
[6] = human, plasma, oral, 4 mg once daily, multiple doses, Cycle 1 Day 15
[7] = human, plasma, oral, 8 mg once daily, multiple doses, Cycle 1 Day 15
[8] = human, plasma, oral, 15 mg once daily, multiple doses, Cycle 1 Day 15
[9] = human, plasma, oral, 20 mg once daily, multiple doses, Cycle 1 Day 15
[10] = human, plasma, oral, 45 mg once daily, multiple doses, Cycle 1 Day 8
[11] = human, plasma, oral, 65 mg once daily, multiple doses, Cycle 1 Day 8
[12] = human, plasma, 2 mg single oral dose, Cycle 1 Day 1
[13] = human, plasma, 4 mg single oral dose, Cycle 1 Day 1
[14] = human, plasma, 8 mg single oral dose, Cycle 1 Day 1
[15] = human, plasma, 15 mg single oral dose, Cycle 1 Day 1
[16] = human, plasma, 20 mg single oral dose, Cycle 1 Day 1
[17] = human, plasma, 30 mg single oral dose, Cycle 1 Day 1
[18] = human, plasma, 45 mg single oral dose, Cycle 1 Day 1
[19] = human, plasma, 65 mg single oral dose, Cycle 1 Day 1

Compound: CC1(C)OCCn2c1nc1c(N3CCOCC3)nc(-c3cnc(N)nc3)nc12 [GDC-0084, 5-(6,6-dimethyl-4-morpholino-8,9-dihydro-6H-[1,4]oxazino[3,4-e]purin-2-yl)pyrimidin-2-amine]
- Clhep ([1]; Dog hepatocytes): 13 mL/min/kg
- Clhep ([1]; Mouse hepatocytes): 30 mL/min/kg
- Clhep ([1]; Rat hepatocytes): 3 mL/min/kg
- concentration at 15 day ([2]; 4 mg once daily, multiple doses, Cycle 1 Day 15): 0.0207 µM
- CL/F (L/hr), Mean ([2]; 4 mg single oral dose, Cycle 1 Day 1): 4.87 L/h
- concentration at 15 day ([2]; 8 mg once daily, multiple doses, Cycle 1 Day 15): 0.0301 µM
- CL/F (L/hr), Mean ([2]; 8 mg single oral dose, Cycle 1 Day 1): 12.4 L/h
- concentration at 15 day ([2]; 15 mg once daily, multiple doses, Cycle 1 Day 15): 0.0581 µM
- concentration at 15 day ([2]; 20 mg once daily, multiple doses, Cycle 1 Day 15): 0.0635 µM
- CL/F (L/hr), Mean ([2]; 20 mg single oral dose, Cycle 1 Day 1): 7.92 L/h
- concentration at 15 day ([2]; 30 mg once daily, multiple doses, Cycle 1 Day 15): 0.155 µM
- CL/F (L/hr), Mean ([2]; 30 mg single oral dose, Cycle 1 Day 1): 8.22 L/h
- concentration at 15 day ([2]; 45 mg once daily, multiple doses, Cycle 1 Day 8): 0.206 µM
- concentration at 15 day ([2]; 65 mg once daily, multiple doses, Cycle 1 Day 8): 0.271 µM
- half-life ([2]; human, plasma, oral, across Cohorts 1-6 (2 to 30 mg), single dose, read-out: apparent terminal phase t1/2 (converted)): ~18.7 h
- Cmax [2, 5]: 0.0331 µM
- AUC(0-t) [2, 5]: 0.346 µM·h
- concentration at 15 day [2, 5]: 0.00877 µM
- Tmax ([2]; human, plasma, oral, 2 mg once daily, multiple doses, Cycle 1 Day 15, read-out: Tmax (hr), Median): 2 h
- Cmax [2, 6]: 0.593 µM
- AUC(0-t) [2, 6]: 0.833 µM·h
- Tmax ([2]; human, plasma, oral, 4 mg once daily, multiple doses, Cycle 1 Day 15, read-out: Tmax (hr), Median): 2 h
- Cmax [2, 7]: 0.0883 µM
- AUC(0-t) [2, 7]: 1.16 µM·h
- Tmax ([2]; human, plasma, oral, 8 mg once daily, multiple doses, Cycle 1 Day 15, read-out: Tmax (hr), Median): 2.5 h
- Cmax [2, 8]: 0.156 µM
- AUC(0-t) [2, 8]: 2.34 µM·h
- Tmax ([2]; human, plasma, oral, 15 mg once daily, multiple doses, Cycle 1 Day 15, read-out: Tmax (hr), Median): 3 h
- Cmax [2, 9]: 0.23 µM
- AUC(0-t) [2, 9]: 2.87 µM·h
- Tmax ([2]; human, plasma, oral, 20 mg once daily, multiple doses, Cycle 1 Day 15, read-out: Tmax (hr), Median): 2 h
- Cmax ([2]; human, plasma, oral, 30 mg once daily, multiple doses, Cycle 1 Day 15): 0.332 µM
- AUC(0-t) ([2]; human, plasma, oral, 30 mg once daily, multiple doses, Cycle 1 Day 15, n = 5): 5.67 µM·h
- Tmax ([2]; human, plasma, oral, 30 mg once daily, multiple doses, Cycle 1 Day 15, read-out: Tmax (hr), Median): 2 h
- Cmax [2, 10]: 0.544 µM
- AUC(0-t) [2, 10]: 8.06 µM·h
- Tmax ([2]; human, plasma, oral, 45 mg once daily, multiple doses, Cycle 1 Day 8, read-out: Tmax (hr), Median): 3.5 h
- Cmax [2, 11]: 0.58 µM
- AUC(0-t) [2, 11]: 9.01 µM·h
- Tmax ([2]; human, plasma, oral, 65 mg once daily, multiple doses, Cycle 1 Day 8, read-out: Tmax (hr), Median): 3 h
- half-life ([2]; human, plasma, po, 2 mg, 2 mg single oral dose, Cycle 1 Day 1, read-out: T1/2 (hr), Mean (converted)): 16.9 h
- half-life ([2]; human, plasma, po, 4 mg, 4 mg single oral dose, Cycle 1 Day 1, read-out: T1/2 (hr), Mean (converted)): 21.8 h
- half-life ([2]; human, plasma, po, 8 mg, 8 mg single oral dose, Cycle 1 Day 1, read-out: T1/2 (hr), Mean (converted)): 18.2 h
- half-life ([2]; human, plasma, po, 15 mg, 15 mg single oral dose, Cycle 1 Day 1, read-out: T1/2 (hr), Mean (converted)): 18.1 h
- half-life ([2]; human, plasma, po, 20 mg, 20 mg single oral dose, Cycle 1 Day 1, read-out: T1/2 (hr), Mean (converted)): 14.8 h
- half-life ([2]; human, plasma, po, 30 mg, 30 mg single oral dose, Cycle 1 Day 1, read-out: T1/2 (hr), Mean (converted)): 22 h
- AUC(0-t) [2, 12]: 0.21 µM·h
- AUC(0-inf) [2, 12]: 0.365 µM·h
- Tmax ([2]; human, plasma, 2 mg single oral dose, Cycle 1 Day 1, read-out: Tmax (hr), Median): 2 h
- Cmax [2, 13]: 0.0359 µM
- AUC(0-t) [2, 13]: 0.435 µM·h
- AUC(0-inf) [2, 13]: 0.833 µM·h
- Tmax ([2]; human, plasma, 4 mg single oral dose, Cycle 1 Day 1, read-out: Tmax (hr), Median): 3 h
- Cmax [2, 14]: 0.0452 µM
- AUC(0-t) [2, 14]: 0.509 µM·h
- AUC(0-inf) [2, 14]: 0.974 µM·h
- Tmax ([2]; human, plasma, 8 mg single oral dose, Cycle 1 Day 1, read-out: Tmax (hr), Median): 3 h
- Cmax [2, 15]: 0.0912 µM
- AUC(0-t) [2, 15]: 1.09 µM·h
- AUC(0-inf) [2, 15]: 1.97 µM·h
- Tmax ([2]; human, plasma, 15 mg single oral dose, Cycle 1 Day 1, read-out: Tmax (hr), Median): 2 h
- Cmax [2, 16]: 0.159 µM
- AUC(0-t) [2, 16]: 1.9 µM·h
- AUC(0-inf) [2, 16]: 2.75 µM·h
- Tmax ([2]; human, plasma, 20 mg single oral dose, Cycle 1 Day 1, read-out: Tmax (hr), Median): 2 h
- Cmax [2, 17]: 0.174 µM
- AUC(0-t) [2, 17]: 2.42 µM·h
- AUC(0-inf) [2, 17]: 5.33 µM·h
- Tmax ([2]; human, plasma, 30 mg single oral dose, Cycle 1 Day 1, read-out: Tmax (hr), Median): 2 h
- Cmax [2, 18]: 0.234 µM
- AUC(0-t) [2, 18]: 3.12 µM·h
- Tmax ([2]; human, plasma, 45 mg single oral dose, Cycle 1 Day 1, read-out: Tmax (hr), Median): 3 h
- Cmax [2, 19]: 0.255 µM
- AUC(0-t) [2, 19]: 4.06 µM·h
- Tmax ([2]; human, plasma, 65 mg single oral dose, Cycle 1 Day 1, read-out: Tmax (hr), Median): 2.5 h
- Tmax ([2]; human, plasma, single oral dose, all cohorts, read-out: median Tmax): ~2 h
- dose proportionality of Cmax and AUC0-24 ([2]; single and multiple doses, 2 mg to 65 mg once daily): approximately linear and dose proportional increase in Cmax and AUC0-24
- blood brain barrier crossing and brain distribution [3]: crosses the blood brain barrier and uniformly distributes throughout the brain
- Papp A→B at 2 h, 5 μM (human BCRP): 23.2 ± 5.4 ×10⁻⁶ cm/s
- Papp B→A at 2 h, 5 μM (human BCRP): 16 ± 1.1 ×10⁻⁶ cm/s
- fraction unbound at 4 h, 5 µM [4]: 0.295 ± 0.027
- inhibition at 1 µM (CDK9/cyclinT1): -0.9%
- inhibition at 1 µM (Frk): 8%
- inhibition at 1 µM (PI4Ka): 7%
- inhibition at 1 µM (PhK_gamma2): 0%
- inhibition at 1 µM (TBK1): 4%
